According to patent US20190119282A1, “IMIDAZOPYRIDAZINES USEFUL AS INHIBITORS OF THE PAR-2 SIGNALING PATHWAY” (Vertex Pharmaceuticals Incorporated, priority 2013, published 2019):
Marks after values point to notes of the source that are not given here.

Key:
[1] = target: T1, PAR2 (HT-29 cells, SLIGKV activation) (Homo sapiens, UniProt P55085); assay: Ca FLIPR TETRA assay, ANTAGONIST mode, stimulation with 8 μM SLIGKV; type: cell-based; conditions: HT-29 cells, antagonist mode, stimulation with 8 μM SLIGKV
T1 construct: host or cells: HT-29 cells
T1 sequence (P55085 26-397): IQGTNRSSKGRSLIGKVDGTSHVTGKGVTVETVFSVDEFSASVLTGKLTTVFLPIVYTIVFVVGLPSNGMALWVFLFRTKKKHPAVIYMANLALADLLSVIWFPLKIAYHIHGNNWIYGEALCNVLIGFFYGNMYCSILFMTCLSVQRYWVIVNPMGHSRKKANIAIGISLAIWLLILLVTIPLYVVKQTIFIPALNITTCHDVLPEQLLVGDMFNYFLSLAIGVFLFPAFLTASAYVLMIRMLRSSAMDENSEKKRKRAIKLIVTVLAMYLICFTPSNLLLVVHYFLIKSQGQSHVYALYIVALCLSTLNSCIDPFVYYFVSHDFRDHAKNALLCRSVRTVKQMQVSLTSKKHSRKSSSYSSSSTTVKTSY
In short: (§1)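 Cells plated overnight at 37 °C, 5% CO2 in 1% FBS medium; dye loading 45 min at 37 °C then 15 min r.t.; compound added from DMSO/HBSS dilution; first read for intrinsic Ca2+ activation; 30 min r.t. incubation; antagonist read after addition of the fixed activator (8 μM SLIGKV, 1 U/mL thrombin, 3.1 U/mL trypsin or 0.6 μM UTP).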

TNBS-induced colitis = assay: Mouse TNBS-induced colitis model; type: in vivo, BALB/c mice; conditions: mice
Method: (§2) Male Sprague Dawley rats and BALB/c mice were housed in groups in a temperature controlled room and were acclimatized in the animal facility for at least three days prior to use. Experiments were performed during the light phase of the cycle. Animals have food and water ad libitum.
Example 65: Mouse TNBS-Induced Colitis Model
Colitis was induced by intra-colonic administration of 1.5 mg of TNBS in 75 μl of 40% v/volume ethanol solution under isoflurane anesthesia at a depth of 4 cm from the anal verge. Mice were kept with their heads down for 30 additional seconds post administration to ensure distribution of TNBS. Disease activity scores were assessed for a period of 5 days starting prior to TNBS injection (baseline reading). […] Test compounds or vehicle (0.5% MC/0.1% SDS) were systemically administered at the indicated doses in a volume of 10 mL/kg each day for 5 days and starting 1 day before TNBS.
(§3) Data are expressed as the mean % effect. Statistical significance was assessed using t-test for comparison between naive and inflamed rats, and one-way ANOVA followed by post-hoc comparison test for overall drug effectiveness. A difference between groups is considered significant with a p value of <0.05. *, p<0.05; **, p<0.01; ***, p<0.001 vs. vehicle.

[2] = target: T2, PAR2 (HT-29 cells, trypsin activation) (Homo sapiens, UniProt P55085); assay: Ca FLIPR TETRA assay, ANTAGONIST mode, stimulation with 3.1 U/mL trypsin; type: cell-based; conditions: HT-29 cells, antagonist mode, stimulation with 3.1 U/mL trypsin
T2 construct: host or cells: HT-29 cells
T2 sequence (P55085 26-397): T1 sequence (P55085 26-397)
In short: as §1

[3] = system: UTP-stimulated Ca2+ response in HT-29 cells; assay: Ca FLIPR TETRA assay, ANTAGONIST mode, stimulation with 0.6 μM UTP; type: cell-based, human; conditions: Homo sapiens; HT-29 cells, antagonist mode, stimulation with 0.6 μM UTP
In short: as §1

[4] = system: Thrombin-stimulated Ca2+ response in HT-29 cells; assay: Ca FLIPR TETRA assay, ANTAGONIST mode, stimulation with 1 U/mL Thrombin; type: cell-based, human; conditions: Homo sapiens; HT-29 cells, antagonist mode, stimulation with 1 U/mL Thrombin
In short: as §1

[5] = system: tryptase-induced mechanical hypersensitivity; assay: Rat tryptase-induced mechanical hypersensitivity model; type: in vivo, Sprague Dawley rats; conditions: given 30 minutes post tryptase challenge
Method: as §2
Example 64: Rat Tryptase-Induced Mechanical Hypersensitivity Model
Peripheral sensitization was induced by intra-dermal administration of 500 ng of tryptase in a volume of 10 ul PBS under isoflurane anesthesia. Rats were then placed on a wire mesh grid in separate compartments and allowed to acclimatize before testing. Mechanical hypersensitivity was assessed 30 min after tryptase injection using calibrated von Frey filaments applied perpendicular to the plantar surface of the affected paw using the up-and-down method. Test compounds or vehicle (0.5% MC/0.1% SDS) were systemically administered at doses indicated in a volume of 5 mL/kg 3-18 h before the tryptase challenge (Table 11) or 30 minutes post tryptase challenge (Table 12).
as §3

SMILES: Cc1nc(C(=O)N2CCN(C(=O)c3cn4nc(-c5ccc(F)cc5)cc(C(C)(C)C)c4n3)C(C)(C)C2)n[nH]1 [Compound I-343, (8-(tert-butyl)-6-(4-fluorophenyl)imidazo[1,2-b]pyridazin-2-yl)(2,2-dimethyl-4-(5-methyl-1H-1,2,4-triazole-3-carbonyl)piperazin-1-yl)methanone]
- IC50 [1]: 0.5 nM
- % improvement in Disease activity scores (TNBS-induced colitis; dose 15 mg/kg each day for 5 days starting 1 day before TNBS): 24%
- % improvement in Disease activity scores (TNBS-induced colitis; dose 50 mg/kg each day for 5 days starting 1 day before TNBS): 33* %
- % improvement in Disease activity scores (TNBS-induced colitis; dose 150 mg/kg each day for 5 days starting 1 day before TNBS): 62*** %
- IC50 [2]: 0.8 nM
- IC50 [3]: 1030 nM
- IC50 [4]: 1110 nM
- % inhibition of an established tryptase-induced nociception ([5]; dose 3 mg/kg): 12%
- % inhibition of an established tryptase-induced nociception ([5]; dose 10 mg/kg): 23%
- % inhibition of an established tryptase-induced nociception ([5]; dose 30 mg/kg): 49* %
